Source: paper PMC5152921, “Evolutionary and Functional Diversification of the Vitamin D Receptor-Lithocholic Acid Partnership” (PLoS ONE, 2016)

Key:
Assay in all cases: Transient transactivation assay (XREM-Luc, HepG2)
Type in all cases: cell-based
Settings in all cases: 100 μM LCA
Human VDR = biological target: T1, Human VDR (Homo sapiens, UniProt P11473)
T1 sequence (P11473 1-427): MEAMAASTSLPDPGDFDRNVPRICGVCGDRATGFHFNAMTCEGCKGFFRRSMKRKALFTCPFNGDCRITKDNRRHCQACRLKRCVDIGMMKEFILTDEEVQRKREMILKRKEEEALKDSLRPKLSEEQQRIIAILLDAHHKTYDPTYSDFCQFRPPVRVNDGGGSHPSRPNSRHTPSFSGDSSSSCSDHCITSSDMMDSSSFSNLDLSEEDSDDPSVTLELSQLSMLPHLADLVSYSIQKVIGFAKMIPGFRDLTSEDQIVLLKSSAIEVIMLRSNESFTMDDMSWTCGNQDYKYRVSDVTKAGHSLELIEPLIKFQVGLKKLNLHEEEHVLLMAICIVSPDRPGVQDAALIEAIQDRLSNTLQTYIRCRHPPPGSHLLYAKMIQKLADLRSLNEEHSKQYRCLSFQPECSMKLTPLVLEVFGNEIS
Experimental: (§1) HepG2 cells (American Type Culture Collection #HB-8065) were cultured in T75 flasks with vented caps (Corning Life Sciences, Corning, NY) using Minimum Essential Medium (MEM) with phenol red supplemented with 10% fetal bovine serum, 1 mM sodium pyruvate, and 1X MEM non-essential amino acids. Cells were maintained following standard protocols in a 5% CO2 incubator set at 37°C, and split when 80–90% confluent.
(§2) For the transient transactivation assays, HepG2 cells were seeded in 96-well tissue culture plates at a density of 2.5x10^4 cells per well in complete phenol red-free MEM, and allowed to recover overnight. Transfections were performed the following day using Lipofectamine 2000 (Life Technologies, Grand Island, NY) as described previously. For functional comparisons, 89.7 ng/well of full-length pSG5-VDR was co-transfected with 19.2 ng/well human XREM-Luc reporter and 4.5 ng/well of pRL-CMV as an internal luciferase control. Coregulator studies included the addition of 18.3 ng/well of human coregulators (pCDNA-RXRWT, pCDNA-RXRAF2, pSG5-SRC1, pSG5-GRIP1 or pSG5-ACTR) where indicated. […] Controls include 120 nM 1,25D3 as a positive control, and ethanol as a vehicle control. Twenty-four hours post-exposure cells were tested for luciferase activity using the Dual-Glo Luciferase Assay System (Promega Corporation, Madison, WI) according to the manufacturer’s protocols. Luciferase data were first normalized to the pRL-CMV internal luciferase control. […] To calculate the impact of coregulators on VDR transactivation, VDR response in the presence of coregulators was normalized to VDR alone. All experiments were repeated 3 times and conducted as groups of 4 replicate wells. VDR response in the absence of coregulators was analyzed using a 1-way ANOVA followed by Dunnett’s multiple comparisons test. To examine the effects of different coregulators on VDR activation, data were analyzed using a 2-way ANOVA followed by Bonferroni’s multiple comparisons test in GraphPad Prism (GraphPad Inc, San Diego, CA).

Lamprey VDR = biological target: T2, Lamprey VDR (Petromyzon marinus, UniProt Q7ZZY9)
T2 sequence (Q7ZZY9 1-406): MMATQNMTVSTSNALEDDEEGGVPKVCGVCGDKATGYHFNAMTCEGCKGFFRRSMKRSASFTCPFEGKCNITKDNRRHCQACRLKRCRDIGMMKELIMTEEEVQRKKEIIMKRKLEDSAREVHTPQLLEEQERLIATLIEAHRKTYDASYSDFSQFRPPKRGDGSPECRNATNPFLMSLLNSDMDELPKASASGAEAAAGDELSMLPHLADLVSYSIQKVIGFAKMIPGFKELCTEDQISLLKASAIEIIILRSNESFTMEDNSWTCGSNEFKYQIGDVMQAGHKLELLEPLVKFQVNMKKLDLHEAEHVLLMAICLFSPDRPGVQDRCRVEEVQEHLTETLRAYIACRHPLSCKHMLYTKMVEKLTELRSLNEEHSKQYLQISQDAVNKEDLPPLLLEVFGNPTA
T2 sequence (P19793 1-462 partner): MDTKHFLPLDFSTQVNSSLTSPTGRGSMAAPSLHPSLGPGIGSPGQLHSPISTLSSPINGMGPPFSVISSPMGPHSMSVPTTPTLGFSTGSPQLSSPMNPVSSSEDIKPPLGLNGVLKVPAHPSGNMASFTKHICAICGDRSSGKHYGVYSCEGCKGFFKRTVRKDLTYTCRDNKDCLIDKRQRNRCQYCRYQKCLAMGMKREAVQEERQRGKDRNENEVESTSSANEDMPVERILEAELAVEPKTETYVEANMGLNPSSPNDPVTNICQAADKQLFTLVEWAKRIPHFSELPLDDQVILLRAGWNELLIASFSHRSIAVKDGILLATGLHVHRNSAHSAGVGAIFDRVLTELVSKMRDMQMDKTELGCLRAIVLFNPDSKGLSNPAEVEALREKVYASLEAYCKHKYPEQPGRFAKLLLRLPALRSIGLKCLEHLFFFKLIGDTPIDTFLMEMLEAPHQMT
Experimental: as §1, §2

Skate VDR = biological target: T3, Skate VDR (Leucoraja erinacea, UniProt A0A088GDQ7)
T3 sequence (A0A088GDQ7 1-434): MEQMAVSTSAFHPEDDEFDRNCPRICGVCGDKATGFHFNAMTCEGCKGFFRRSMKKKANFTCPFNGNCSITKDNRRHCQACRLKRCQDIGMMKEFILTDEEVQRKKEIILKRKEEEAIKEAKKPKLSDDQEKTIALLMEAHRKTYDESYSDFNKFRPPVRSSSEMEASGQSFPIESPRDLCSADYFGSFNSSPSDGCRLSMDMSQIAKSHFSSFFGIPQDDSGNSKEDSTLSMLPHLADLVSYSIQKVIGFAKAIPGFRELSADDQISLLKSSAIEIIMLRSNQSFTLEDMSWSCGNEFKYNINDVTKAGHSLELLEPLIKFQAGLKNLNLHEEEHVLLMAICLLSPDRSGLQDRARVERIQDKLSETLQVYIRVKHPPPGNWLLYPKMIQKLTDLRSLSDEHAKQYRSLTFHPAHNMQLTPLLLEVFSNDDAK
T3 sequence (P19793 1-462 partner): T2 sequence (P19793 1-462 partner)
Experimental: as §1, §2

[1] = co-transfected human RXRWT, vs VDR alone

C[C@H](CCC(=O)O)[C@H]1CC[C@H]2[C@@H]3CC[C@@H]4C[C@H](O)CC[C@]4(C)[C@H]3CC[C@]12C [LCA, 5β-cholanic acid-3α-ol]
Effect of exogenous human RXRWT on VDR transactivation (Human VDR; [1]): significantly enhanced transactivation | Effect of RXRWT+SRC1 or RXRWT+GRIP1 on VDR transactivation (Human VDR; compared to either coregulator individually): significantly enhanced VDR transactivation | Effect of SRC/p160 co-activators on VDR transactivation (Lamprey VDR; any SRC/p160 co-activator, presence or absence of RXRWT): No change in transactivation | Effect of exogenous human RXRWT on VDR transactivation (Lamprey VDR; [1]): no effect | Effect of exogenous human RXRWT on VDR transactivation (Skate VDR; [1]): significantly enhanced transactivation | Effect of RXRWT+SRC1 or RXRWT+GRIP1 on VDR transactivation (Skate VDR; not significantly different from RXRWT individually): Enhanced VDR transactivation was also observed
